US9062041B2 (Bayer Intellectual Property GmbH, priority 2011, dated 2015)

What was measured:
Assay type in all cases: cell-based
human PGD receptor = biological target: T1, human PGD receptor (Homo sapiens, UniProt Q13258); assay: cAMP antagonism test on the human prostaglandin D receptor (HTRF cAMP detection); settings: selectivity towards hDP, IC50 measured by cAMP antagonism test
T1 sequence (Q13258 1-359): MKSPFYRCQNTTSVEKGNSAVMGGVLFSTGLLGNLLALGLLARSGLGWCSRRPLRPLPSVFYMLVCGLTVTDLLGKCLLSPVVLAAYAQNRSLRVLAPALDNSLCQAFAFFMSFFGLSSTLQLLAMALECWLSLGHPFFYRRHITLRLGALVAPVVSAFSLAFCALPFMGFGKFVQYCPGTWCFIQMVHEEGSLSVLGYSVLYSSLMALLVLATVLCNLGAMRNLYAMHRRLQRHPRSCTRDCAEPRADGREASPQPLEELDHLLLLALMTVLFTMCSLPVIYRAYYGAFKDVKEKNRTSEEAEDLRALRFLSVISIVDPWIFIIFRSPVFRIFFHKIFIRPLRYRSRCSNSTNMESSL
Procedure, shortened: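 HTRF competition read-out (665/620 nm ratio ×10000), where higher FRET means less cAMP, i.e. antagonism. Compounds (0.8 nM–16.5 μM) were preincubated 20 min at RT with cells and cAMP-d2, PGD2 (3× solution, 6 nM) in IBMX-containing PBS added for 30 min at RT, then cells lysed 20 min.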

[1] = biological target: EP2 subtype of the human PGE2 receptor (Homo sapiens, UniProt P43116); assay: cAMP antagonism test on the human EP2 receptor (HTRF cAMP detection); settings: hEP2 receptor, read-out: Antagonism hEP2 IC50
Procedure, shortened: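 Read-out is a competitive HTRF for cAMP: lysate cAMP displaces cAMP-d2 from Eu cryptate-labelled antibody, and antagonism raises the 665/620 nm ratio. Compound (0.8 nM–16.5 μM) added to EP2 cells 20 min at RT before 60 min PGE2 challenge (3× stock 1.5 nM) with IBMX, followed by 20 min lysis.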

[2] = biological target: EP4 subtype of the human PGE2 receptor (Homo sapiens, UniProt P35408); assay: cAMP antagonism test on the human EP4 receptor (HTRF cAMP detection); settings: selectivity towards hEP4, IC50 measured by cAMP antagonism test
Procedure, shortened: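 Competitive HTRF cAMP read-out (cAMP-d2 vs Eu-cryptate anti-cAMP antibody, 665/620 nm ratio) on lysed human EP4 cells. Compound (0.8 nM–16.5 μM) applied 20 min at RT before 60 min PGE2 challenge (3× solution 0.3 nM, IBMX present); 20 min lysis precedes reading.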

Chain of EP2 subtype of the human PGE2 receptor (P43116 whole entry): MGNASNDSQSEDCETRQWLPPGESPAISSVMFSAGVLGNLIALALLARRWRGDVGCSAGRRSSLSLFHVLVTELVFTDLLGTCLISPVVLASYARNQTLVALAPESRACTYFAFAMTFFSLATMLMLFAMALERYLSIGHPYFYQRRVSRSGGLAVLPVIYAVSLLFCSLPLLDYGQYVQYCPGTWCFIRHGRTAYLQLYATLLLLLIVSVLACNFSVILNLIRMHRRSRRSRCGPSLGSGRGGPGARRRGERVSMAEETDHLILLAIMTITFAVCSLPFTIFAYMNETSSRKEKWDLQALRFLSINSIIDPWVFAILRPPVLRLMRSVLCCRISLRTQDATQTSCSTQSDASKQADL
Chain of EP4 subtype of the human PGE2 receptor (P35408 whole entry): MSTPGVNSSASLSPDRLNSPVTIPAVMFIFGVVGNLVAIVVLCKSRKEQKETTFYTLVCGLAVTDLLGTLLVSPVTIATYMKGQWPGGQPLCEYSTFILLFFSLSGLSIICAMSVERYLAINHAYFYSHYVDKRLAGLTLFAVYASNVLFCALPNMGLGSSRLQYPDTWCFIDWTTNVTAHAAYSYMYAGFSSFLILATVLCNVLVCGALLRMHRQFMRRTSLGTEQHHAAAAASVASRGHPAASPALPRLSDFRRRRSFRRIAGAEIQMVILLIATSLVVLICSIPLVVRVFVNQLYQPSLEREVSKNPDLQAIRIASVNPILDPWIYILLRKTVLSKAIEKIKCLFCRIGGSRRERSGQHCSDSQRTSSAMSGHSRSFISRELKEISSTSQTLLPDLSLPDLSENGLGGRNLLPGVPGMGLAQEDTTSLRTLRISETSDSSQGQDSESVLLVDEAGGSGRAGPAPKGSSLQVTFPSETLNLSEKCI

| Selectivity hEP2/hDP (human PGD receptor) | IC50 [1] [µM] | Selectivity hEP2/hEP4 [2] | SMILES |
| --- | --- | --- | --- |
| xxx (xxx > 100) | 0.0132 | xxx (xxx > 100) | O=C(NCCOCC1CC1)c1ccc2nn(CC3CCN(C(=O)c4ccc(-c5ccc(F)cc5)cc4)CC3)cc2c1OC(F)F [Example 231, N-[2-(cyclopropylmethoxy)ethyl]-4-(difluoromethoxy)-2-({1-[(4′-fluorobiphenyl-4-yl)carbonyl]piperidin-4-yl}methyl)-2H-indazol-5-carboxamide] |
| xxx (xxx > 100) | 0.0237 | xxx (xxx > 100) | COCCNC(=O)c1ccc2nn(CC3CCN(C(=O)c4ccc(OC(F)(F)F)c(F)c4)CC3)cc2c1OC [Example 272, 2-({1-[3-fluoro-4-(trifluoromethoxy)benzoyl]piperidin-4-yl}methyl)-4-methoxy-N-(2-methoxyethyl)-2H-indazol-5-carboxamide] |
| xxx (xxx > 100) | 0.00551 | xxx (xxx > 100) | COCCNC(=O)c1ccc2nn(CC3CCN(C(=O)c4ccc(-c5cccc(C(F)(F)F)c5)cc4F)CC3)cc2c1C [Example 45, 2-[(1-{[3-fluoro-3′-(trifluoromethyl)-biphenyl-4-yl]-carbonyl}-piperidin-4-yl)-methyl]-N-(2-methoxyethyl)-4-methyl-2H-indazol-5-carboxamide] |
| xxx (xxx > 100) | 0.00587 | xxx (xxx > 100) | COCCNC(=O)c1ccc2nn(CC3CCN(C(=O)c4ncc(-c5ccccc5)o4)CC3)cc2c1C [Example 354, N-(2-methoxyethyl)-4-methyl-2-({1-[(5-phenyloxazol-2-yl)carbonyl]piperidin-4-yl}methyl)-2H-indazol-5-carboxamide] |
| xx (xx: 10-100) | 0.471 | xx (xx: 10-100) | Cc1c(C(=O)NCCN2CCOCC2)ccc2nn(CC3CN(C(=O)c4ccc(Cl)cc4)C3)cc12 [Example 128, 2-{[1-(4-chlorobenzoyl)azetidin-3-yl]methyl}-4-methyl-N-(2-morpholinoethyl)-2H-indazol-5-carboxamide] |
| xxx (xxx > 100) | 0.0136 | xxx (xxx > 100) | Cc1c(C(=O)NCCOCC2CC2)ccc2nn(CC3CN(C(=O)c4ccc(-c5ccc(F)cc5)cc4)C3)cc12 [Example 157, N-[2-(cyclopropylmethoxy)ethyl]-2-({1-[(4′-fluorobiphenyl-4-yl)carbonyl]azetidin-3-yl}methyl)-4-methyl-2H-indazol-5-carboxamide] |
| xx (xx: 10-100) | 0.541 | xx (xx: 10-100) | Cc1c(C(=O)NCC(F)(F)F)ccc2nn(CC3CCN(C(=O)c4nc5ccccc5o4)CC3)cc12 [Example 299, 2-{[1-(benzoxazol-2-ylcarbonyl)piperidin-4-yl]methyl}-4-methyl-N-(2,2,2-trifluoroethyl)-2H-indazol-5-carboxamide] |
| xxx (xxx > 100) | 0.0102 | xxx (xxx > 100) | O=C(NCCOCC1CC1)c1ccc2nn(CC3CCN(C(=O)c4ccc(Cl)cc4)CC3)cc2c1OC(F)F [Example 229, 2-{[1-(4-chlorobenzoyl)piperidin-4-yl]methyl}-N-[2-(cyclopropylmethoxy)-ethyl]-4-(difluoromethoxy)-2H-indazol-5-carboxamide] |
| xx (xx: 10-100) | 0.309 | xx (xx: 10-100) | Cc1c(C(=O)NCC(F)(F)F)ccc2nn(CC3CN(C(=O)c4ccc(Cl)cc4)C3)cc12 [Example 129, 2-{[1-(4-chlorobenzoyl)azetidin-3-yl]methyl}-4-methyl-N-(2,2,2-trifluoroethyl)-2H-indazol-5-carboxamide] |
